Source: patent publication US20250263408A1 (Uniquest Pty Ltd, priority 2022, published 2025)

Experiments:
[1] = system: Ba/F3-WT (wild type) cells; assay: Ba/F3 Proliferation Assay, Ba/F3-WT (wild type) cells with mIL-3 (Resazurin); type: cell-based; settings: Ba/F3-WT cells +mIL-3, 48-hour incubation
Ba/F3-Syk cells = biological target: T1, Ba/F3-Syk cells (Homo sapiens, UniProt P43405); assay: Ba/F3 Proliferation Assay, Ba/F3-Syk cells (Resazurin); type: cell-based; settings: 48-hour incubation
T1 construct: fused on or other part: Possible but unprinted fusion partner: TEL (ETV6), the usual partner for Ba/F3 lines transformed by Syk; Nothing on a partner is printed

## CC(C)n1ccc(-c2cc(OC[C@@H]3CNCC4(CC4)O3)c3nccnc3c2)c1 [Compound 8.2, 5-{[(5S)-4-oxa-7-azaspiro[2.5]octan-5-yl]methoxy}-7-[1-(propan-2-yl)-1H-pyrrol-3-yl]quinoxaline]
[1]; Mus musculus, BaF3, 48 h
  EC50: 0.614 µM
Ba/F3-Syk cells
  EC50: 0.0221 µM

## COCCn1ccc(-c2cc(OC[C@@H]3CNCCO3)c3nccnc3c2)c1 [Compound 8.7]
[1]
  EC50: 0.621 µM
Ba/F3-Syk cells
  EC50: 0.0151 µM

## CCn1ccc(-c2cc(OC[C@@H]3CNCCCO3)c3nccnc3c2)c1 [Compound 8.9, 7-(1-ethyl-1H-pyrrol-3-yl)-5-{[(2S)-1,4-oxazepan-2-yl]methoxy}quinoxaline]
[1]; Mus musculus, BaF3, 48 h
  EC50: 1.62 µM
Ba/F3-Syk cells
  EC50: 0.0205 µM

## CC(C)n1ccc(-c2cc(O[C@H](C)[C@@H]3CNCC(C)(C)O3)c3nccnc3c2)c1 [Compound 8.11, 5-[(1R)-1-[(2S)-6,6-dimethylmorpholin-2-yl]ethoxy]-7-[1-(propan-2-yl)-1H-pyrrol-3-yl]quinoxaline]
[1]; Mus musculus, BaF3, 48 h
  EC50: 0.625 µM
Ba/F3-Syk cells
  EC50: 0.00632 µM

## CCn1ccc(-c2cc(O[C@H](C)[C@@H]3CNCC(C)(C)O3)c3nccnc3c2)c1 [Compound 8.12, 5-[(1R)-1-[(2S)-6,6-dimethylmorpholin-2-yl]ethoxy]-7-(1-ethyl-1H-pyrrol-3-yl)quinoxaline]
[1]; Mus musculus, BaF3, 48 h
  EC50: 0.537 µM
Ba/F3-Syk cells
  EC50: 0.0078 µM

## CC(C)n1ccc(-c2cc(O[C@H](C)[C@@H]3CNCCO3)c3nccnc3c2)c1 [Compound 8.13]
[1]
  EC50: 0.371 µM
Ba/F3-Syk cells
  EC50: 0.0073 µM

## CCn1ccc(-c2cc(O[C@H](C)[C@@H]3CNCCO3)c3nccnc3c2)c1 [Compound 8.14, 7-(1-ethyl-1H-pyrrol-3-yl)-5-[(1R)-1-[(2S)-morpholin-2-yl]ethoxy]quinoxaline]
[1]; Mus musculus, BaF3, 48 h
  EC50: 0.435 µM
Ba/F3-Syk cells
  EC50: 0.0083 µM

## C[C@@H](Oc1cc(-c2ccn(CC(F)F)c2)cc2nccnc12)[C@@H]1CNCCO1 [Compound 8.15, 7-[1-(2,2-difluoroethyl)-1H-pyrrol-3-yl]-5-[(1R)-1-[(2S)-morpholin-2-yl]ethoxy]quinoxaline]
[1]; Mus musculus, BaF3, 48 h
  EC50: 0.358 µM
Ba/F3-Syk cells
  EC50: 0.0089 µM

## CCn1ccc(-c2cc(OC[C@@H]3CNCC4(CCC4)O3)c3nccnc3c2)c1 [Compound 8.16, 7-(1-ethyl-1H-pyrrol-3-yl)-5-{[(6S)-5-oxa-8-azaspiro[3.5]nonan-6-yl]methoxy}quinoxaline]
[1]; Mus musculus, BaF3, 48 h
  EC50: 0.822 µM
Ba/F3-Syk cells
  EC50: 0.0094 µM

## COCCn1ccc(-c2cc(OC[C@@H]3CNCC4(CCC4)O3)c3nccnc3c2)c1 [Compound 8.18, 7-[1-(2-methoxyethyl)-1H-pyrrol-3-yl]-5-{[(6S)-5-oxa-8-azaspiro[3.5]nonan-6-yl]methoxy}quinoxaline]
[1]; Mus musculus, BaF3, 48 h
  EC50: 0.335 µM
Ba/F3-Syk cells
  EC50: 0.0084 µM

## FC(F)Cn1ccc(-c2cc(OC[C@@H]3CNCCCO3)c3nccnc3c2)c1 [Compound 8.20, 7-[1-(2,2-difluoroethyl)-1H-pyrrol-3-yl]-5-{[(2S)-1,4-oxazepan-2-yl]methoxy}quinoxaline]
[1]; Mus musculus, BaF3, 48 h
  EC50: 1.86 µM
Ba/F3-Syk cells
  EC50: 0.0276 µM

## CCn1ccc(-c2cc(OC[C@@H]3CNCC(C)(C)O3)c3nccnc3c2)c1 [Compound 8.21, 5-{[(2S)-6,6-dimethylmorpholin-2-yl]methoxy}-7-(1-ethyl-1H-pyrrol-3-yl)quinoxaline]
[1]; Mus musculus, BaF3, 48 h
  EC50: 0.951 µM
Ba/F3-Syk cells
  EC50: 0.01 µM

## CCn1ccc(-c2cc(OC[C@@H]3CNCCO3)c3nccnc3c2)c1 [Compound 8.22, 7-(1-ethyl-1H-pyrrol-3-yl)-5-{[(2S)-morpholin-2-yl]methoxy}quinoxaline]
[1]; Mus musculus, BaF3, 48 h
  EC50: 0.655 µM
Ba/F3-Syk cells
  EC50: 0.0126 µM

## CC(C)n1ccc(-c2cc(OC[C@@H]3CNC[C@@H](C)O3)c3nccnc3c2)c1 [Compound 8.23, 5-{[(2S,6R)-6-methylmorpholin-2-yl]methoxy}-7-[1-(propan-2-yl)-1H-pyrrol-3-yl]quinoxaline]
[1]; Mus musculus, BaF3, 48 h
  EC50: 0.421 µM
Ba/F3-Syk cells
  EC50: 0.0027 µM

## CC[C@@H](C)n1ccc(-c2cc(OC[C@@H]3CNCCO3)c3nccnc3c2)c1 [Compound 8.24, 7-{1-[(2R)-butan-2-yl]-1H-pyrrol-3-yl}-5-{[(2S)-morpholin-2-yl]methoxy}quinoxaline]
[1]; Mus musculus, BaF3, 48 h
  EC50: > 1 µM
Ba/F3-Syk cells
  EC50: 0.0129 µM

## CC[C@H](C)n1ccc(-c2cc(OC[C@@H]3CNCCO3)c3nccnc3c2)c1 [Compound 8.25, 7-{1-[(2S)-butan-2-yl]-1H-pyrrol-3-yl}-5-{[(2S)-morpholin-2-yl]methoxy}quinoxaline]
[1]; Mus musculus, BaF3, 48 h
  EC50: > 1 µM
Ba/F3-Syk cells
  EC50: 0.0115 µM

## Cn1cc(-c2cc3ncccc3c(O[C@H]([C@@H]3CNCCO3)C(F)(F)F)n2)cn1 [Compound 10.2, 7-(1-methyl-1H-pyrazol-4-yl)-5-[(1R)-2,2,2-trifluoro-1-[(2S)-morpholin-2-yl]ethoxy]-1,6-naphthyridine]
[1]; Mus musculus, BaF3, 48 h
  EC50: > 10 µM
Ba/F3-Syk cells
  EC50: 0.839 µM

## CC1(C)CNC[C@@H](COc2nc(-c3cnn4c3CCCC4)cc3ncccc23)O1 [Compound 10.3, 5-{[(2S)-6,6-dimethylmorpholin-2-yl]methoxy}-7-(4H,5H,6H,7H-pyrazolo[1,5-a]pyridin-3-yl}-1,6-naphthyridine]
[1]; Mus musculus, BaF3, 48 h
  EC50: > 10 µM
Ba/F3-Syk cells
  EC50: 0.365 µM

## c1cnc2cc(-c3cnn4c3CCCC4)nc(OC[C@@H]3CNCCO3)c2c1 [Compound 10.4, 5-{[(2S)-morpholin-2-yl]methoxy}-7-{4H,5H,6H,7H-pyrazolo[1,5-a]pyridin-3-yl}-1,6-naphthyridine]
[1]; Mus musculus, BaF3, 48 h
  EC50: 8.09 µM
Ba/F3-Syk cells
  EC50: 0.663 µM

## Cn1cc(-c2cc3ncccc3c(O[C@@H]([C@@H]3CNCCO3)C(F)(F)F)n2)cn1 [Compound 10.5, 7-(1-methyl-1H-pyrazol-4-yl)-5-[(1S)-2,2,2-trifluoro-1-[(2S)-morpholin-2-yl]ethoxy]-1,6-naphthyridine]
[1]; Mus musculus, BaF3, 48 h
  EC50: 3.28 µM
Ba/F3-Syk cells
  EC50: 0.798 µM

## CC(C)n1cc(-c2cc3ncccc3c(OC[C@]3(C)CNCCO3)n2)cn1 [Compound 10.6, 5-{[(2S)-2-methylmorpholin-2-yl]methoxy}-7-[1-(propan-2-yl)-1H-pyrazol-4-yl]-1,6-naphthyridine]
[1]; Mus musculus, BaF3, 48 h
  EC50: 0.754 µM
Ba/F3-Syk cells
  EC50: 0.106 µM

## CC(C)n1cc(-c2cc3ncccc3c(OC[C@@]3(C)CNCCO3)n2)cn1 [Compound 10.8, 5-{[(2R)-2-methylmorpholin-2-yl]methoxy}-7-[1-(propan-2-yl)-1H-pyrazol-4-yl]-1,6-naphthyridine]
[1]; Mus musculus, BaF3, 48 h
  EC50: 1.9 µM
Ba/F3-Syk cells
  EC50: 0.0811 µM

## Cn1ccc(-c2cc3ncccc3c(OC[C@@]3(C)CNCCO3)n2)c1 [Compound 10.9, 7-(1-methyl-1H-pyrrol-3-yl)-5-{[(2R)-2-methylmorpholin-2-yl]methoxy}-1,6-naphthyridine]
[1]; Mus musculus, BaF3, 48 h
  EC50: 7.04 µM
Ba/F3-Syk cells
  EC50: 0.148 µM

## Cn1cc(-c2cc3ncccc3c(OC[C@@H]3CNCC(C)(C)CO3)n2)cn1 [Compound 10.10, 5-{[(2S)-6,6-dimethyl-1,4-oxazepan-2-yl]methoxy}-7-(1-methyl-1H-pyrazol-4-yl)-1,6-naphthyridine]
[1]; Mus musculus, BaF3, 48 h
  EC50: 3.68 µM
Ba/F3-Syk cells
  EC50: 0.271 µM

## CC1(C)CNC[C@@H](COc2nc(-c3cnn(C(C)(C)C)c3)cc3ncccc23)OC1 [Compound 10.11, 7-(1-tert-butyl-1H-pyrazol-4-yl)-5-{[(2S)-6,6-dimethyl-1,4-oxazepan-2-yl]methoxy}-1,6-naphthyridine]
[1]; Mus musculus, BaF3, 48 h
  EC50: 4.14 µM
Ba/F3-Syk cells
  EC50: 0.0808 µM

## CC(C)n1cc(-c2cc3ncccc3c(OC[C@@H]3CNCC(C)(C)CO3)n2)cn1 [Compound 10.12, 5-{[(2S)-6,6-dimethyl-1,4-oxazepan-2-yl]methoxy}-7-[1-(propan-2-yl)-1H-pyrazol-4-yl]-1,6-naphthyridine]
[1]; Mus musculus, BaF3, 48 h
  EC50: 1.92 µM
Ba/F3-Syk cells
  EC50: 0.0861 µM

## CC[C@@]1(COc2nc(-c3cnn(C(C)(C)C)c3)cc3ncccc23)CNCCO1 [Compound 10.14, 7-(1-tert-butyl-1H-pyrazol-4-yl)-5-{[(2S)-2-ethylmorpholin-2-yl]methoxy}-1,6-naphthyridine]
[1]; Mus musculus, BaF3, 48 h
  EC50: 2.55 µM
Ba/F3-Syk cells
  EC50: 0.281 µM

## CC[C@@]1(COc2nc(-c3cnn(C(C)C)c3)cc3ncccc23)CNCCO1 [Compound 10.16, 5-{[(2S)-2-ethylmorpholin-2-yl]methoxy}-7-[1-(propan-2-yl)-1H-pyrazol-4-yl]-1,6-naphthyridine]
[1]; Mus musculus, BaF3, 48 h
  EC50: 1.21 µM
Ba/F3-Syk cells
  EC50: 0.259 µM

## C1=C(c2cc(OC[C@@H]3CNCCO3)c3cccnc3c2)CCC1 [Compound 11.1, 7-(cyclopent-1-en-1-yl)-5-{[(2S)-morpholin-2-yl]methoxy}quinoline]
[1]; Mus musculus, BaF3, 48 h
  EC50: > 10 µM
Ba/F3-Syk cells
  EC50: 1.36 µM

## CC1(C)CNC[C@@H](COc2cc(-c3cnn4c3CCCC4)cc3ncccc23)O1 [Compound 11.2, 5-{[(2S)-6,6-dimethylmorpholin-2-yl]methoxy}-7-{4H,5H,6H,7H-pyrazolo[1,5-a]pyridin-3-yl}quinoline]
[1]; Mus musculus, BaF3, 48 h
  EC50: 8.46 µM
Ba/F3-Syk cells
  EC50: 0.637 µM

## CC(C)n1cc(-c2cc(O[C@H](C)[C@@H]3CNCC(C)(C)O3)c3cccnc3c2)cn1 [Compound 11.3, 5-[(1R)-1-[(2S)-6,6-dimethylmorpholin-2-yl]ethoxy]-7-[1-(propan-2-yl)-1H-pyrazol-4-yl]quinoline]
[1]; Mus musculus, BaF3, 48 h
  EC50: 0.557 µM
Ba/F3-Syk cells
  EC50: 0.0375 µM

## C[C@@H](Oc1cc(-c2cnn(C)c2)cc2ncccc12)[C@@H]1CNCC(C)(C)O1 [Compound 11.4, 5-[(1R)-1-[(2S)-6,6-dimethylmorpholin-2-yl]ethoxy]-7-(1-methyl-1H-pyrazol-4-yl)quinoline]
[1]; Mus musculus, BaF3, 48 h
  EC50: 0.74 µM
Ba/F3-Syk cells
  EC50: 0.0697 µM

## C[C@@H](Oc1cc(-c2ccn(C)c2)cc2ncccc12)[C@@H]1CNCC(C)(C)O1 [Compound 11.5, 5-[(1R)-1-[(2S)-6,6-dimethylmorpholin-2-yl]ethoxy]-7-(1-methyl-1H-pyrrol-3-yl)quinoline]
[1]; Mus musculus, BaF3, 48 h
  EC50: 1.85 µM
Ba/F3-Syk cells
  EC50: 0.0906 µM

## Cn1ccc(-c2cc(OC[C@@H]3CNCC4(CCC4)O3)c3cccnc3c2)c1 [Compound 11.6, 7-(1-methyl-1H-pyrrol-3-yl)-5-{[(6S)-5-oxa-8-azaspiro[3.5]nonan-6-yl]methoxy}quinoline]
[1]; Mus musculus, BaF3, 48 h
  EC50: 1.79 µM
Ba/F3-Syk cells
  EC50: 0.0334 µM

## Cn1cc(-c2cc(OC[C@@H]3CNCC4(CCC4)O3)c3cccnc3c2)cn1 [Compound 11.7, 7-(1-methyl-1H-pyrazol-4-yl)-5-{[(6S)-5-oxa-8-azaspiro[3.5]nonan-6-yl]methoxy}quinoline]
[1]; Mus musculus, BaF3, 48 h
  EC50: 1.07 µM
Ba/F3-Syk cells
  EC50: 0.0463 µM
